Experimental data: patent US4450269A, “Mono-5-substituted-3-chloro-4H-1,2,6-thiadiazin-4-one antifungal agents” (FMC Corporation, priority 1980, dated 1984)

Assays:
Fusarium solani = test: Soil treatment, bean root rot; assay type: in vivo; details: Fusarium solani, soil, 336 h; 150 ppm suspension, 3.8 mg active per pot; read-out: Percent Disease Control, seed/soil, bean root rot
Description: In a similar manner the soil around a bean seedling was drenched with a sufficient amount of 150 ppm suspension of test chemical to provide 3.8 mg active per pot. Twenty-four hours later the soil was inoculated with a suspension of minced mycelium of Fusarium solani. The inoculated plants were then placed in a greenhouse, evaluated after fourteen days, and percent control of root rot damage calculated. The results, reported in Table III, indicate only a few of the compounds tested are effective in treating Bean Root Rot but that these provide a high degree of control.

Cercospora beticola = test: whole plant or invertebrate; details: in Beta vulgaris, foliar, 24 h, read-out: Percent Disease Control, curative, sugar beet leaf spot

Compound	pest or weed control at 150 ppm, 3.8 mg/pot (Fusarium solani) [%]	pest or weed control at 150 ppm (Cercospora beticola) [%]
O=c1c(Cl)nsnc1Oc1ccc([N+](=O)[O-])cc1 [Compound 9, 3-chloro-5-(4-nitrophenoxy)-4H--1,2,6-thiadiazin-4-one]	0	75
Cc1cc(Cl)ccc1Oc1nsnc(Cl)c1=O [Compound 55, 3-chloro-5-(4-chloro-2-methylphenoxy)-4H--1,2,6-thiadiazin-4-one]	0	95
O=c1c(Cl)nsnc1Oc1cccc2ccccc12 [Compound 32, 3-chloro-5(1-naphthoxy)-4H-1,2,6-thiadiazin-4-one]	0	90
Cc1cc(C)cc(Oc2nsnc(Cl)c2=O)c1 [Compound 25, 3-chloro-5-(3,5-dimethylphenoxy)-4H--1,2,6-thiadiazin-4-one]	0	50
O=c1c(Cl)nsnc1Oc1cccc(Cl)c1 [Compound 13, 3-chloro-5-(3-chlorophenoxy)-4H--1,2,6-thiadiazin-4-one]	75	98
O=C(O)Cc1ccccc1Oc1nsnc(Cl)c1=O [Compound 45, 3-(2-carboxymethylphenoxy)-5-chloro-4H--1,2,6-thiadiazin-4-one]	90	90
O=c1c(Cl)nsnc1Oc1ccc(F)cc1 [Compound 11, 3-chloro-5-(4-fluorophenoxy)-4H--1,2,6-thiadiazin-4-one]	0	0
Cc1cc(Oc2nsnc(Cl)c2=O)ccc1Cl [Compound 54, 3-chloro-5-(4-chloro-3-methylphenoxy)-4H--1,2,6-thiadiazin-4-one]	0	0
Cc1ccccc1Oc1nsnc(Cl)c1=O [Compound 22, 3-chloro-5-(2-methylphenoxy)-4H--1,2,6-thiadiazin-4-one]	0	0
O=c1c(Cl)nsnc1Oc1cc(Cl)cc(Cl)c1 [Compound 20, 3-chloro-5-(3,5-dichlorophenoxy)-4H--1,2,6-thiadiazin-4-one]	75	95
O=c1c(Cl)nsnc1Oc1ccccc1Cl [Compound 14, 3-chloro-5-(2-chlorophenoxy)-4H--1,2,6-thiadiazin-4-one]	90	0
O=c1c(Cl)nsnc1Oc1ccccc1 [Compound 2, 3-chloro-5-phenoxy-4H--1,2,6-thiadiazin-4-one]	100	0
Cc1cc(Cl)c(Oc2nsnc(Cl)c2=O)cc1C [Compound 58, 3-chloro-5-[(2-chloro-4,5-dimethyl)phenoxy]-4H--1,2,6-thiadiazin-4-one]	0	0
CC(=O)Nc1cccc(Oc2nsnc(Cl)c2=O)c1 [Compound 42, 3-[(3-N--acetylamino)-phenoxy]-5-chloro-4H--1,2,6-thiadiazin-4-one]	90	0
O=c1c(Cl)nsnc1Oc1ccccc1Br [Compound 34, 3-chloro-5-(2-bromophenoxy)-4H-1,2,6,-thiadiazin-4-one]	0	0
O=c1c(Cl)nsnc1Oc1cccc(Cl)c1Cl [Compound 19, 3-chloro-5-(2,3-dichlorophenoxy)-4H--1,2,6-thiadiazin-4-one]	0	0
Cc1ccc(Oc2nsnc(Cl)c2=O)cc1 [Compound 3, 3-chloro-5-(4-methylphenoxy)-4H--1,2,6-thiadiazin-4-one]	80	0

Compound	pest or weed control at 150 ppm, 3.8 mg/pot (Fusarium solani) [%]	pest or weed control at 150 ppm (Cercospora beticola) [%]
O=c1c(Cl)nsnc1Oc1cccc(C(F)(F)F)c1 [Compound 44, 3-chloro-5-[(3-trifluoromethyl)phenoxy]-4H--1,2,6-thiadiazin-4-one]	90	0
CC(=O)c1ccc(Oc2nsnc(Cl)c2=O)cc1 [Compound 47, 3-(4-acetylphenoxy)-5-chloro-4H--1,2,6-thiadiazin-4-one]	95	90
CCOC(=O)c1ccc(Oc2nsnc(Cl)c2=O)cc1 [Compound 7, 3-chloro-5-(4-ethoxycarbonylphenoxy)-4H--1,2,6-thiadiazin-4-one]	98	75
CC(=O)Nc1ccccc1Oc1nsnc(Cl)c1=O [Compound 43, 3-[(2-acetylamino)-phenoxy]-5-chloro-4H--1,2,6-thiadiazin-4-one]	0	90
O=c1c(Cl)nsnc1Oc1c(Cl)cccc1Cl [Compound 18, 3-chloro-5-(2,6-dichlorophenoxy)-4H--1,2,6-thiadiazin-4-one]	–	98
Cc1ccc(Oc2nsnc(Cl)c2=O)c(C)c1 [Compound 23, 3-chloro-5-(2,4-dimethylphenoxy)-4H--1,2,6-thiadiazin-4-one]	0	100
CC(C)(C)c1ccc(Oc2nsnc(Cl)c2=O)cc1 [Compound 4, 3-chloro-5-(4-tert-butylphnoxy)-4H--1,2,6-thiadiazin-4-one]	0	0
N#Cc1ccc(Oc2nsnc(Cl)c2=O)cc1 [Compound 10, 3-chloro-5-(4-cyanophenoxy)-4H--1,2,6-thiadiazin-4-one]	0	95
O=c1c(Cl)nsnc1Oc1ccc(Cl)c(Cl)c1 [Compound 16, 3-chloro-5-(3,4-dichlorophenoxy)-4H--1,2,6-thiadiazin-4-one]	0	95
Cc1cc(Oc2nsnc(Cl)c2=O)cc(C)c1Cl [Compound 59, 3-chloro-5-[(4-chloro-3,5-dimethyl)phenoxy]-4H--1,2,6-thiadiazin-4-one]	0	0
CC(=O)Nc1ccc(Oc2nsnc(Cl)c2=O)cc1 [Compound 8, 5-(4-acetylaminophenoxy)-3-chloro-4H--1,2,6-thiadiazin-4-one]	0	0
CCCCOc1ccc(Oc2nsnc(Cl)c2=O)cc1 [Compound 6, 3-chloro-5-(4-n-butoxyphenoxy)-4H--1,2,6-thiadiazin-4-one]	0	0
CNC(=O)Nc1ccc(Oc2nsnc(Cl)c2=O)cc1 [Compound 28, 3-chloro-5-[4-(3-methylureido)-phenoxy]-4H--1,2,6-thiadiazin-4-one]	95	0
O=c1c(Cl)nsnc1Oc1ccc(Cl)cc1Cl [Compound 17, 3-chloro-5-(2,4-dichlorophenoxy)-4H--1,2,6-thiadiazin-4-one]	0	95
O=c1c(Cl)nsnc1Oc1c(Cl)cc(Cl)cc1Cl [Compound 30, 3-chloro-5-(2,4,6-trichlorophenoxy)-4H--1,2,6-thiadiazin-4-one]	0	0
COc1ccc(Oc2nsnc(Cl)c2=O)cc1 [Compound 5, 3-chloro-5-(4-methoxyphenoxy)4H--1,2,6-thiadiazin-4-one]	50	0
CC(=O)c1cccc(Oc2nsnc(Cl)c2=O)c1 [Compound 48, 3-(3-acetylphenoxy)-5-chloro-4H--1,2,6-thiadiazin-4-one]	95	–
